From ChEMBL document CHEMBL4680318, “(S)-Erypoegin K, an isoflavone isolated from Erythrina poeppigiana, is a novel inhibitor of topoisomerase IIα: Induction of G2 phase arrest in human gastric cancer cells” (Bioorg Med Chem, 2021)
Activity calls are given as the source filed them. No cut-off for these calls is given here.

Tests used:
[1] = Growth inhibition of human HBC4 cells measured after 48 hrs by sulforhodamine B assay; assay type: functional
MCF7 = assay: Growth inhibition of human MCF7 cells measured after 48 hrs by sulforhodamine B assay; assay type: functional
U-251 = assay: Growth inhibition of human U-251 cells measured after 48 hrs by sulforhodamine B assay; assay type: functional
SF-539 = assay: Growth inhibition of human SF-539 cells measured after 48 hrs by sulforhodamine B assay; assay type: functional
SNB-75 = assay: Growth inhibition of human SNB-75 cells measured after 48 hrs by sulforhodamine B assay; assay type: functional
SNB-78 = assay: Growth inhibition of human SNB-78 cells measured after 48 hrs by sulforhodamine B assay; assay type: functional
HCC 2998 = assay: Growth inhibition of human HCC 2998 cells measured after 48 hrs by sulforhodamine B assay; assay type: functional
HT-29 = assay: Growth inhibition of human HT-29 cells measured after 48 hrs by sulforhodamine B assay; assay type: functional
HCT-116 = assay: Growth inhibition of human HCT-116 cells measured after 48 hrs by sulforhodamine B assay; assay type: functional
NCI-H226 = assay: Growth inhibition of human NCI-H226 cells measured after 48 hrs by sulforhodamine B assay; assay type: functional
NCI-H522 = assay: Growth inhibition of human NCI-H522 cells measured after 48 hrs by sulforhodamine B assay; assay type: functional
DMS-273 = assay: Growth inhibition of human DMS-273 cells measured after 48 hrs by sulforhodamine B assay; assay type: functional
DMS-114 = assay: Growth inhibition of human DMS-114 cells measured after 48 hrs by sulforhodamine B assay; assay type: functional
LOX IMVI = assay: Growth inhibition of human LOX IMVI cells measured after 48 hrs by sulforhodamine B assay; assay type: functional
OVCAR-3 = assay: Growth inhibition of human OVCAR-3 cells measured after 48 hrs by sulforhodamine B assay; assay type: functional
OVCAR-4 = assay: Growth inhibition of human OVCAR-4 cells measured after 48 hrs by sulforhodamine B assay; assay type: functional
OVCAR-5 = assay: Growth inhibition of human OVCAR-5 cells measured after 48 hrs by sulforhodamine B assay; assay type: functional
OVCAR-8 = assay: Growth inhibition of human OVCAR-8 cells measured after 48 hrs by sulforhodamine B assay; assay type: functional
SK-OV-3 = assay: Growth inhibition of human SK-OV-3 cells measured after 48 hrs by sulforhodamine B assay; assay type: functional
St-4 = assay: Growth inhibition of human St-4 cells measured after 48 hrs by sulforhodamine B assay; assay type: functional
MKN-1 [2] = assay: Growth inhibition of human MKN-1 cells measured after 48 hrs by sulforhodamine B assay; assay type: functional
MKN-7 = assay: Growth inhibition of human MKN-7 cells measured after 48 hrs by sulforhodamine B assay; assay type: functional
MKN-28 = assay: Growth inhibition of human MKN-28 cells measured after 48 hrs by sulforhodamine B assay; assay type: functional
MKN-45 = assay: Growth inhibition of human MKN-45 cells measured after 48 hrs by sulforhodamine B assay; assay type: functional
MKN-74 = assay: Growth inhibition of human MKN-74 cells measured after 48 hrs by sulforhodamine B assay; assay type: functional
DU-145 = assay: Growth inhibition of human DU-145 cells measured after 48 hrs by sulforhodamine B assay; assay type: functional
[3] = target: DNA topoisomerase 2-alpha (Homo sapiens) (UniProt P11388); assay: Inhibition of human DNA topoisomerase 2alpha assessed as stabilization of DNA cleavage complex at 50 to 200 uM using supercoiled pSL1180 plasmid DNA as substrate measured after 30 mins by ethidium bromide staining-based UV imaging analysis; conditions: dose 50-200 µM
GCIY [4] = assay: Cytotoxicity against human GCIY cells assessed as reduction in cell viability measured after 48 hrs by MTS/CellTiter96 aqueous one solution cell proliferation assay; assay type: functional, cell-based
GCIY [5] = assay: Induction of apoptosis in human GCIY cells assessed as activation of caspase 3 measured after 5 to 35 hrs by fluorescence assay; assay type: functional, cell-based; conditions: dose 1-10 µM, time 5-35 hrs
GCIY [6] = assay: Induction of apoptosis in human GCIY cells assessed as activation of caspase 3 at 1 to 10 uM by fluorescence assay; assay type: functional, cell-based; conditions: dose 1-10 µM, time 5-35 hrs, TDE = time-dependent effect
GCIY [7] = assay: Induction of apoptosis in human GCIY cells assessed as activation of caspase 9 measured after 5 to 35 hrs by fluorescence assay; assay type: functional, cell-based; conditions: dose 1-10 µM, time 5-35 hrs
GCIY [8] = assay: Induction of apoptosis in human GCIY cells assessed as activation of caspase 9 at 1 to 10 uM by fluorescence assay; assay type: functional, cell-based; conditions: dose 1-10 µM, time 5-35 hrs, TDE = time-dependent effect
MKN-1 [9] = assay: Induction of apoptosis in human MKN-1 cells assessed as activation of caspase 3 measured after 5 to 35 hrs by fluorescence assay; assay type: functional, cell-based; conditions: dose 1-10 µM, time 5-35 hrs
MKN-1 [10] = assay: Induction of apoptosis in human MKN-1 cells assessed as activation of caspase 9 measured after 5 to 35 hrs by fluorescence assay; assay type: functional, cell-based; conditions: dose 1-10 µM, time 5-35 hrs
MKN-1 [11] = assay: Induction of apoptosis in human MKN-1 cells assessed as activation of caspase 9 at 1 to 10 uM by fluorescence assay; assay type: functional, cell-based; conditions: dose 1-10 µM, time 5-35 hrs, TDE = time-dependent effect
GCIY [12] = assay: Cell cycle arrest in human GCIY cells assessed as accumulation at G0/G1 phase at 0.3 uM measured after 24 hrs by propidium iodide staining based Muse cell analyzer (reference value: 43 +/- 2.2 %); assay type: functional
GCIY [13] = assay: Cell cycle arrest in human GCIY cells assessed as accumulation at S phase at 0.3 uM measured after 24 hrs by propidium iodide staining based Muse cell analyzer (reference value: 25.7 +/- 0.7 %); assay type: functional
GCIY [14] = assay: Cell cycle arrest in human GCIY cells assessed as accumulation at G2/M phase at 0.3 uM measured after 24 hrs by propidium iodide staining based Muse cell analyzer (reference value: 28.9 +/- 1.3 %); assay type: functional
MKN-1 [15] = assay: Cell cycle arrest in human MKN-1 cells assessed as accumulation at G0/G1 phase at 0.1 uM measured after 24 hrs by propidium iodide staining based Muse cell analyzer (reference value: 49.6 +/- 2.6 %); assay type: functional
MKN-1 [16] = assay: Cell cycle arrest in human MKN-1 cells assessed as accumulation at S phase at 0.1 uM measured after 24 hrs by propidium iodide staining based Muse cell analyzer (reference value: 15.5 +/- 0.2 %); assay type: functional
MKN-1 [17] = assay: Cell cycle arrest in human MKN-1 cells assessed as accumulation at G2/M phase at 0.1 uM measured after 24 hrs by propidium iodide staining based Muse cell analyzer (reference value: 33.2 +/- 0.5 %); assay type: functional
MKN-1 [18] = assay: Cell cycle arrest in human MKN-1 cells assessed as accumulation at S phase at 0.3 uM measured after 24 hrs by propidium iodide staining based Muse cell analyzer (reference value: 15.5 +/- 0.2 %); assay type: functional
GCIY [19] = assay: Antitumor activity against human GCIY cells xenografted in KSN/Slc nude mouse assessed as reduction in tumor size at 40 mg/kg, ip administered twice a week for 4 weeks starting from day 4 post inoculation by vernier caliper method; assay type: functional, organism-based
[20] = Toxicity in KSN/Slc nude mouse xenografted with human GCIY cells assessed as effect on body weight at 40 mg/kg, ip administered twice a week for 4 weeks starting from day 4 post inoculation; assay type: organism-based; conditions: in vivo, 672 h

Sequence of DNA topoisomerase 2-alpha (Homo sapiens) (P11388 whole entry): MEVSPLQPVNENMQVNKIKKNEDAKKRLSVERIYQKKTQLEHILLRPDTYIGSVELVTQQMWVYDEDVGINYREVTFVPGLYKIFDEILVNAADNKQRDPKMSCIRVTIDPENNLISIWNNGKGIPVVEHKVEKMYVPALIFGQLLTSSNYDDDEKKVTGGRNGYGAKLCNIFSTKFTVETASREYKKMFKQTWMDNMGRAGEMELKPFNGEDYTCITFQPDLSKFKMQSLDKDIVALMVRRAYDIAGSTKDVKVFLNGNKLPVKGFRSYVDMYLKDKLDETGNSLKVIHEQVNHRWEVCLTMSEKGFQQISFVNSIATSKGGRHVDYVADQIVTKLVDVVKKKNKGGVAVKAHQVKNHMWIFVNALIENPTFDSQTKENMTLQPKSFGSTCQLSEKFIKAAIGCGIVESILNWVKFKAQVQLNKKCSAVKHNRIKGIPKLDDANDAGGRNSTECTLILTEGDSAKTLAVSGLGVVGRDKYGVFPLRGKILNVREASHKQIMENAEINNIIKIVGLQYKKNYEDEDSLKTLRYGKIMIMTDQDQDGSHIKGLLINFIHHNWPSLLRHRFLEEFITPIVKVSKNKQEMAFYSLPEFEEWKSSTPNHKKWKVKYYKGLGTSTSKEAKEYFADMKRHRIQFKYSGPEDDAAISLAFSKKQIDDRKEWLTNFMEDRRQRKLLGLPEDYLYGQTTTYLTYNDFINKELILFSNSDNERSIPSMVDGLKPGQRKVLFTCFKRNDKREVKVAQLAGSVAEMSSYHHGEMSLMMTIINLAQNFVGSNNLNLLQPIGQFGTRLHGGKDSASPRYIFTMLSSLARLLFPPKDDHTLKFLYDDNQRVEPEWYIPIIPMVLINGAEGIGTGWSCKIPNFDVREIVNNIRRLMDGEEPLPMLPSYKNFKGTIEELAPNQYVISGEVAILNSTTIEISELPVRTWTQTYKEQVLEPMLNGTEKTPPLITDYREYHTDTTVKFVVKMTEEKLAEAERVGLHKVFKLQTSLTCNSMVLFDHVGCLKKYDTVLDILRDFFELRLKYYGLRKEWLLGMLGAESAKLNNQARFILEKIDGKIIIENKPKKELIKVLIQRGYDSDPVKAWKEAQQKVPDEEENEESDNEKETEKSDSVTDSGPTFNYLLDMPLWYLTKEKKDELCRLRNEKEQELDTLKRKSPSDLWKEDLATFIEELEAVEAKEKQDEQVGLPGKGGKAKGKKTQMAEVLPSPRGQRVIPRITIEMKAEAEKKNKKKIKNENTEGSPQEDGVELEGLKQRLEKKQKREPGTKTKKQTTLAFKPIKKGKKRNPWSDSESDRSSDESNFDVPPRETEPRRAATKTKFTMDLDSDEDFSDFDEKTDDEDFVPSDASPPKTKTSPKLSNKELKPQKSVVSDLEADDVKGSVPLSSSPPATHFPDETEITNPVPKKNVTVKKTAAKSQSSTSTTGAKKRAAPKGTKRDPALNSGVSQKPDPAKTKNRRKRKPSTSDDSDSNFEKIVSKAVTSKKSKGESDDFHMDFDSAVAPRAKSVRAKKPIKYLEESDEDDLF

What does the source list for `CC(C)(O)[C@@H]1Cc2c(cc(O)c3c(=O)c(-c4ccc(O)cc4)coc23)O1`?
GI50 [1]: 1740 nM; GI50 (MCF7): 138 nM; GI50 (U-251): 331 nM; GI50 (SF-539): 347 nM; GI50 (SNB-75): 537 nM; GI50 (SNB-78): 5.89 µM; GI50 (HCC 2998): 2040 nM; GI50 (HT-29): 10.5 µM; GI50 (HCT-116): 1070 nM; GI50 (NCI-H226): 295 nM; GI50 (NCI-H522): 1580 nM; GI50 (DMS-273): 195 nM; GI50 (DMS-114): 380 nM; GI50 (LOX IMVI): 257 nM; GI50 (OVCAR-3): 2880 nM; GI50 (OVCAR-4): > 100 µM; GI50 (OVCAR-5): 1350 nM; GI50 (OVCAR-8): 417 nM; GI50 (SK-OV-3): 427 nM; GI50 (St-4): 6.03 µM; GI50 (MKN-1 [2]): 295 nM; GI50 (MKN-7): 4.37 µM; GI50 (MKN-28): 7.08 µM; GI50 (MKN-45): 347 nM; GI50 (MKN-74): 6.92 µM; GI50 (DU-145): 316 nM; inhibition [3]: Active; IC50 (GCIY [4]): 270 nM; Activity (GCIY [5]): Dose-dependent effect; Activity (GCIY [6]): Tde; Activity (GCIY [7]): Dose-dependent effect; Activity (GCIY [8]): Tde; Activity (MKN-1 [9]): Dose-dependent effect; Activity (MKN-1 [10]): Dose-dependent effect; Activity (MKN-1 [11]): Tde; Activity (GCIY [12]): 2.8%; Activity (GCIY [13]): 7%; Activity (GCIY [14]): 87.3%; Activity (MKN-1 [15]): 24.9%; Activity (MKN-1 [16]): 12.3%; Activity (MKN-1 [17]): 60.8%; Activity (MKN-1 [18]): 9.5%; Activity (GCIY [19]): Active; Activity [20]: Non-Toxic
